The text below walks through data of PubChem BioAssay (NCI).

Some test systems named below: A498 renal; COLO 205 colon; DU-145 prostate; EKVX NSCLC; HL-60(TB) leukemia; MDA-MB-231 breast; NCI-H226 lung; OVCAR-8 ovarian; SN12C renal; UO-31 renal.
Assay in all cases: NCI anticancer screen, dose series, 48 h

SMILES strings stand for the structures.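 Results reflect a 48-hour exposure of cells in 96-well plates to compound at five concentrations. GI50 is the concentration that inhibits growth by half. TGI marks complete inhibition of growth.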 Where only a bound is given, the exact number is not on record here.

On to `O=C(O)CCCN1C(=O)/C(=C/C(Cl)=C/c2ccccc2)SC1=S`, for which the GI50 is 1.96 µM with A498 renal; 1.9 µM in the test with COLO 205 colon; 1.79 µM in the test on DU-145 prostate; 2.21 µM with EKVX NSCLC; 0.551 µM in the test on HL-60(TB) leukemia; 3.17 µM in the test on MDA-MB-231 breast. Moreover, the GI50 in the test on NCI-H226 lung is 2.98 µM; in the test on OVCAR-8 ovarian, 1.48 µM; in the test with SN12C renal, 2.05 µM; in the test on UO-31 renal it was 1.07 µM. The TGI was 3.57 µM in the test with A498 renal; 4.49 µM with COLO 205 colon; 4.39 µM with DU-145 prostate; 5.91 µM in the test with EKVX NSCLC; 10.5 µM in the test with HL-60(TB) leukemia; 10.7 µM in the test on MDA-MB-231 breast. For the same compound, the TGI in the test with NCI-H226 lung stood at 18.4 µM; in the test with OVCAR-8 ovarian it was 13.8 µM; with SN12C renal, 6.79 µM; in the test on UO-31 renal, 2.48 µM.

For the compound `O=C(CSSCC(=O)c1ccc(Cl)cc1)c1ccc(Cl)cc1`, the GI50 is 9.77 µM in the test on A498 renal; 14.2 µM with COLO 205 colon; 4.77 µM in the test with DU-145 prostate; 9.8 µM in the test on EKVX NSCLC; 3.75 µM in the test with HL-60(TB) leukemia; 4.93 µM in the test with MDA-MB-231 breast. The GI50 in the test on NCI-H226 lung is 11.7 µM; in the test on OVCAR-8 ovarian, 5.06 µM; in the test with SN12C renal it was 3.7 µM; with UO-31 renal, 3.48 µM. The TGI with A498 renal was 23 µM; in the test on COLO 205 colon, 29.8 µM; with DU-145 prostate, 91.3 µM; with EKVX NSCLC it was above 100 µM; with HL-60(TB) leukemia it was above 100 µM; in the test on MDA-MB-231 breast it was 24.2 µM. The TGI in the test with NCI-H226 lung was determined as 30.7 µM; in the test on OVCAR-8 ovarian, 23.2 µM; with SN12C renal it was 36.4 µM; in the test on UO-31 renal, 17.5 µM.

Regarding `O=C(Nc1cc(Cl)c(I)c(Cl)c1)C(F)(F)F`, the TGI in the test with A498 renal was 47.8 µM; in the test on COLO 205 colon it was 53.9 µM; in the test on DU-145 prostate it was above 100 µM; with EKVX NSCLC, above 100 µM; in the test on HL-60(TB) leukemia, 58.3 µM; in the test on MDA-MB-231 breast, above 100 µM. Also, the TGI is 66.8 µM in the test with NCI-H226 lung, 56.8 µM in the test on OVCAR-8 ovarian, above 100 µM with SN12C renal and 73.7 µM in the test on UO-31 renal.

With `Nc1[nH]nc(Nc2ccccc2)c1-c1nc2ccccc2s1`, the GI50 in the test on A498 renal was 1.69 µM; in the test on COLO 205 colon, 1.89 µM; in the test with DU-145 prostate, 3.02 µM; with EKVX NSCLC it was 1.26 µM; with HL-60(TB) leukemia it was 2.61 µM; in the test on MDA-MB-231 breast it was 1.59 µM. The GI50 in the test with NCI-H226 lung is 3.71 µM; in the test on OVCAR-8 ovarian it was 2.36 µM; in the test on SN12C renal, 1.58 µM; with UO-31 renal it was 1.33 µM. The TGI in the test with A498 renal is 4.01 µM; in the test with COLO 205 colon it was 3.92 µM; with DU-145 prostate, 11.6 µM; in the test on EKVX NSCLC, 4.28 µM; in the test on HL-60(TB) leukemia, 7 µM; with MDA-MB-231 breast it was 3.75 µM. Further, the TGI was 17 µM in the test with NCI-H226 lung, 5.98 µM with OVCAR-8 ovarian, 3.24 µM in the test with SN12C renal and 7.16 µM with UO-31 renal.

With `O=C1c2ccccc2C(=O)c2c1ccc1conc21`, the TGI in the test on A498 renal worked out at 24.3 µM; in the test with COLO 205 colon it was 12.3 µM; in the test on DU-145 prostate, 7.07 µM; in the test with EKVX NSCLC, 3.87 µM; in the test on HL-60(TB) leukemia, 4.16 µM; in the test with MDA-MB-231 breast, 1.42 µM. Further, the TGI in the test with NCI-H226 lung was 14.9 µM; in the test with OVCAR-8 ovarian it was 4.21 µM; in the test with SN12C renal, 3.61 µM; in the test on UO-31 renal it was 9.53 µM.

Take `O=C(CCN1CCCC1)Nc1ccc2c(Nc3ccc(F)cc3)c3ccccc3nc2c1`: the GI50 was 1.03 µM in the test with A498 renal; 1.3 µM with COLO 205 colon; 0.513 µM in the test with DU-145 prostate; 1.89 µM with EKVX NSCLC; 1.51 µM in the test on HL-60(TB) leukemia; 1.48 µM in the test with MDA-MB-231 breast. Further, the GI50 is 1.41 µM with NCI-H226 lung, 1.56 µM in the test on OVCAR-8 ovarian, 0.523 µM with SN12C renal and 1.16 µM in the test with UO-31 renal. Further, the TGI with A498 renal turned out to be 4.89 µM; in the test on COLO 205 colon it was 3.51 µM; in the test with DU-145 prostate it was 2.03 µM; in the test with EKVX NSCLC, 4.69 µM; in the test with HL-60(TB) leukemia it was 3.75 µM; with MDA-MB-231 breast, 3.34 µM. In addition, the TGI in the test on NCI-H226 lung was 3.21 µM; in the test with OVCAR-8 ovarian it was 8.73 µM; with SN12C renal, 2.43 µM; in the test on UO-31 renal it was 2.55 µM.

`O=C(O)/C=C/c1c2ccc(=O)c(O)c-2oc2c(O)c(O)ccc12`: the TGI is above 100 µM with A498 renal; above 100 µM in the test on COLO 205 colon; above 100 µM with DU-145 prostate; above 100 µM with EKVX NSCLC; above 100 µM in the test with HL-60(TB) leukemia; 66.5 µM in the test on MDA-MB-231 breast. In addition, the TGI with NCI-H226 lung was above 100 µM; in the test with OVCAR-8 ovarian, above 100 µM; with SN12C renal it was 32.3 µM; in the test with UO-31 renal, above 100 µM.

As for `COc1ccc(Cn2cc3c(c2-c2ccccc2)CCc2cnoc2-3)cc1`, the GI50 in the test on A498 renal is 0.209 µM; in the test with COLO 205 colon it was 0.125 µM; with DU-145 prostate, 0.359 µM; in the test with EKVX NSCLC, 0.425 µM; with HL-60(TB) leukemia, 0.133 µM; in the test with MDA-MB-231 breast it was 0.37 µM. Also, the GI50 was 0.476 µM in the test with NCI-H226 lung, 0.416 µM with OVCAR-8 ovarian, 0.545 µM in the test on SN12C renal and 0.677 µM in the test on UO-31 renal. The TGI in the test with A498 renal is above 95.5 µM; with COLO 205 colon, 0.394 µM; in the test with DU-145 prostate it was 2.57 µM; with EKVX NSCLC, above 100 µM; in the test on HL-60(TB) leukemia, 0.389 µM; with MDA-MB-231 breast, above 100 µM. The TGI in the test on NCI-H226 lung, with OVCAR-8 ovarian, with SN12C renal and in the test with UO-31 renal was above 100 µM throughout.

Take `COc1ccc(-n2nc(C)c3c(Nc4ccc(NC(=O)Nc5cccc(C(F)(F)F)c5)cc4)ncnc32)cc1`: the GI50 is 1.99 µM in the test with A498 renal; 1.65 µM in the test on COLO 205 colon; 1.97 µM in the test with DU-145 prostate; 1.93 µM with EKVX NSCLC; 2.31 µM with HL-60(TB) leukemia; 1.46 µM in the test on MDA-MB-231 breast. Besides, the GI50 is 1.84 µM in the test with NCI-H226 lung, 1.93 µM in the test with OVCAR-8 ovarian, 1.79 µM with SN12C renal and 1.51 µM with UO-31 renal. For the same compound, the TGI in the test on A498 renal worked out at 4.45 µM; in the test on COLO 205 colon, 3.49 µM; in the test on DU-145 prostate, 4.54 µM; in the test with EKVX NSCLC, 4.34 µM; in the test with HL-60(TB) leukemia, 5.51 µM; with MDA-MB-231 breast it was 3.14 µM. Moreover, the TGI amounted to 4.2 µM in the test with NCI-H226 lung, 4.39 µM in the test with OVCAR-8 ovarian, 3.86 µM in the test with SN12C renal and 2.86 µM in the test with UO-31 renal.
